Four molecules from paper PMC6926482, “LCO Receptors Involved in Arbuscular Mycorrhiza Are Functional for Rhizobia Perception in Legumes” (Current Biology, 2019) can be followed below.

The target in experiment [1] is T1, SlLYK10c-YFP.
T1 construct: gene LYK10; SlLYK10 extracellular region fused to TM/ICR of Medicago truncatula NFP, YFP kept (about 102 kDa with 6 predicted N-glycans); expressed in Nicotiana benthamiana leaves, membrane fraction; with Serine/threonine receptor-like kinase NFP (Medicago truncatula; transmembrane and intracellular region fused to the SlLYK10 extracellular region)
Briefly: radioligand competition on membrane fractions. The format is binding, Solanum lycopersicum. As to conditions: competition with LCO-V(C18:1,NMe,35S) 1-2 nM. In general terms: In a radioligand displacement assay an active substance lowers the binding of a labelled ligand.

Experiment [2] addresses T2, PhLYK10-YFP.
T2 construct: gene LYK10; expressed in Nicotiana benthamiana leaves, membrane fraction
As to the kind of experiment: radioligand competition on membrane fractions. The format is binding, Petunia hybrida. As to conditions: competition with LCO-V(C18:1,NMe,35S) 1-2 nM; competitor tested at 1 μM only; pH 6.

Setting [3] is: competitor tested at 1 μM only, pH 6.
Where [4] appears, read: 25 mM Na-cacodylate pH 6, 1 mM CaCl2, 1 mM MgCl2, n = 3.

In general, Ki refers to a measure of affinity in units of concentration, obtained from inhibition or displacement. Read a low Ki as a stronger hold on the target.

As to `CC(=O)N[C@H]1[C@H](O[C@H]2[C@H](O)[C@@H](NC(C)=O)C(O)O[C@@H]2CO)O[C@H](CO)[C@@H](O[C@@H]2O[C@H](CO)[C@@H](O[C@@H]3O[C@H](CO)[C@@H](O)[C@H](O)[C@H]3NC(C)=O)[C@H](O)[C@H]2NC(C)=O)[C@@H]1O` (stereo partly drawn) [CO4], the Ki in experiment [1] (setting [3]) and in experiment [2] was greater than 1000 nM each time.
`CCCCCCCCCCCCCCCC(=O)N[C@H]1[C@H](O[C@H]2[C@H](O)[C@@H](NC(C)=O)[C@H](O[C@H]3[C@H](O)[C@@H](NC(C)=O)[C@H](O[C@H]4[C@H](O)[C@@H](NC(C)=O)C(O)O[C@@H]4CO)O[C@@H]3CO)O[C@@H]2CO)O[C@H](CO)[C@@H](O)[C@@H]1O` (stereo partly drawn) [LCO-IV(C16:0)] came in with a Ki in experiment [1] (setting [4]) of 354 ± 60 nM.
On to `CC(=O)N[C@H]1[C@H](O[C@H]2[C@H](O)[C@@H](NC(C)=O)[C@H](O[C@H]3[C@H](O)[C@@H](NC(C)=O)[C@H](O[C@H]4[C@H](O)[C@@H](NC(C)=O)C(O)O[C@@H]4CO)O[C@@H]3CO)O[C@@H]2CO)O[C@H](CO)[C@@H](O[C@@H]2O[C@H](CO)[C@@H](O[C@@H]3O[C@H](CO)[C@@H](O[C@@H]4O[C@H](CO)[C@@H](O[C@@H]5O[C@H](CO)[C@@H](O)[C@H](O)[C@H]5NC(C)=O)[C@H](O)[C@H]4NC(C)=O)[C@H](O)[C@H]3NC(C)=O)[C@H](O)[C@H]2NC(C)=O)[C@@H]1O` (stereo partly drawn) [CO8], for which the Ki in experiment [1] (setting [3]) and in experiment [2] was greater than 1000 nM throughout.
In turn, `CCCCCCCCCCCCCCCC(=O)N[C@H]1[C@H](O[C@H]2[C@H](O)[C@@H](NC(C)=O)[C@H](O[C@H]3[C@H](O)[C@@H](NC(C)=O)[C@H](O[C@H]4[C@H](O)[C@@H](NC(C)=O)C(O)O[C@@H]4COS(=O)(=O)O)O[C@@H]3CO)O[C@@H]2CO)O[C@H](CO)[C@@H](O)[C@@H]1O` (stereo partly drawn) [LCO-IV(C16:0,S)] registered a Ki in experiment [1] (setting [4]) of 192 ± 52 nM.
